The values below come from article PMC4384635, “Autoinhibition of Bruton's tyrosine kinase (Btk) and activation by soluble inositol hexakisphosphate” (eLife, 2015).

As usually defined, the Kd is a measure of binding affinity in units of concentration. Low readings indicate tighter binding, high ones weaker binding. What is called stoichiometry N is a count of units in the complex or per binding partner.

Test [1] deals with T1, Bruton's tyrosine kinase (Btk) (Bos taurus, UniProt Q3ZC95, DEL171-383/L542M/S543T/V555T/R562K/S564A/P565S).
T1 construct: PH-TH-kinase construct (residues 1 to 170 connected to residues 384 to 659)
T1 sequence (Q3ZC95 entry or part of it DEL171-383/L542M/S543T/V555T/R562K/S564A/P565S): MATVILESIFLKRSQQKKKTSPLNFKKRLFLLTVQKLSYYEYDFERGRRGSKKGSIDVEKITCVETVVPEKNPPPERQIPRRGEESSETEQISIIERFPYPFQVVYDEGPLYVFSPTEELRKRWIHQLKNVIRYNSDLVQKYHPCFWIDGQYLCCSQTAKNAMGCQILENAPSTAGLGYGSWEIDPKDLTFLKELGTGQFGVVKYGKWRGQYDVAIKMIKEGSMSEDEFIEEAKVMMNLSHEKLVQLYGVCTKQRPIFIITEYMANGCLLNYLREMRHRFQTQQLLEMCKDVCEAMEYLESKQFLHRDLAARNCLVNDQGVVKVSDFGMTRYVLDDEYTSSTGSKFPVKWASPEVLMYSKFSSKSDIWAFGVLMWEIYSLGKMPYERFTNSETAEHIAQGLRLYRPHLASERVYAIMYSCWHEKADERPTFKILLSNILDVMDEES
In kind it is binding.

The target of test [2] is T2, Bruton's tyrosine kinase (Btk) (Bos taurus, UniProt Q3ZC95).
T2 construct: PH-TH module (residues 1 to 172)
T2 sequence (Q3ZC95 1-172): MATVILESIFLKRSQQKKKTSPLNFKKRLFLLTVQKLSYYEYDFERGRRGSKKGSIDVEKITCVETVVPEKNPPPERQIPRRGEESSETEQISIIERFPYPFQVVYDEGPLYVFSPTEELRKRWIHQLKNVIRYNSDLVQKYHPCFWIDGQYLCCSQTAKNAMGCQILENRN
The test is described as follows: ITC. In kind it is binding.

The target of test [3] is T3, Bruton's tyrosine kinase (Btk) (Bos taurus, UniProt Q3ZC95, N24D/R28C).
T3 construct: PH-TH module (residues 1 to 172)
T3 sequence (Q3ZC95 1-172 N24D/R28C): as the sequence (Q3ZC95 1-172) above, with N24D, R28C counted along it
Nature of the test: ITC with the canonical-site mutant (also printed as R28C/N24D and R28C/N24E). In kind it is binding.

Test [4] deals with T2, Bruton's tyrosine kinase (Btk). Nature of the test: ITC; crystal structure at […] Å; also activates full-length Btk (EC50 around […]). In kind it is binding.
The target of test [5] is PH-TH module of bovine Btk (residues 1 to 172) (bovine) (UniProt Q3ZC95). Nature of the test: not stated; preliminary studies; dimerization of the PH-TH module induced by IP6; dimer to monomers.
The target of test [6] is Src-like module of mouse Btk (SH3-SH2-kinase module, residues 214 to 659) (mouse) (UniProt P35991). The test is described as follows: SEC; peak B from mono-Q, HiPrep S-200 16/60, 25 mM Tris·Cl pH 8.5, 25 mM NaCl, 5 mM DTT, 4°C. On the technique in general: Size exclusion chromatography separates by hydrodynamic size, large species first.
The target is the same in test [7]. The test is described as follows: cross-linking; peak B; disuccinimidyl glutarate and PAGE analysis; results not shown.

Take `Cc1c(NC(=O)c2ccc(C(C)(C)C)cc2)cccc1-c1cn(C)c(=O)c(Nc2ccc(C(=O)N3CCOCC3)cc2)n1` [CGI1746]: the “crystal structure at 1.7 Å” value in test [1] is listed as “structure of the PH-TH-kinase with a bound ATP-competitive inhibitor (CGI1746”. In test [2], `O=P(O)(O)O[C@H]1[C@H](O)[C@@H](OP(=O)(O)O)[C@H](OP(=O)(O)O)[C@@H](OP(=O)(O)O)[C@H]1O` [IP4, inositol tetrakisphosphate] returned a Kd of 26 ± 6 nM. On to `O=P(O)(O)O[C@H]1[C@H](OP(=O)(O)O)[C@@H](OP(=O)(O)O)[C@H](OP(=O)(O)O)[C@@H](OP(=O)(O)O)[C@H]1OP(=O)(O)O` [IP6, inositol hexakisphosphate], for which the Kd in test [3] amounted to 4760 ± 700 nM; in test [4], 238 ± 32 nM. As to “PH-TH module of bovine Btk (residues 1 to 172) (from UniProt Q3ZC95 1-172) (domain or fragment)”, the dissociation constant (Kd) in test [5] is greater than 100000 nM. Regarding “Src-like module of mouse Btk (SH3-SH2-kinase module, residues 214 to 659) (from UniProt P35991 214-659) (domain or fragment)”, the stoichiometry N in test [6] and in test [7] was 2 in each case.
